Test results as given in patent US4524067A, “Soybean saponins, and a method of isolating the same” (Osaka Chemical Laboratory Co., Ltd., priority 1979, dated 1985).
Where two headings read alike, the source gives them in different places.

Columns and labels:
[1] = Antioxidizing action for salad oil (lipid peroxide, Yagi's method); conditions: 180° C. for 40 min.
Experimental: Salad oil: Product of Nisshin Seiyu Co., Ltd., Japan.
Test oils were prepared by using various kinds of saponin components which were added into the salad oil in the amounts of 1 mg/ml and 0.1 mg/ml. These test oils and a control oil containing no saponin component were heated at 180° C. for 40 minutes, while oxygen was being blown thereinto. After they were cooled, the quantities of the lipid peroxides formed in the oils were determined by the Yagi's method [K. Yagi, Biochemie.

[2] = pH / acidity of aqueous solution; type: physicochemical
Solubility = type: physicochemical
[3] = prior art statement; cited from earlier work
[4] = system: lipid peroxides in the heart; test: Inhibition of formation of lipid peroxides in the heart of Adreamycin-treated mice; type: in vivo, mice (COF male); conditions: for Lipid peroxide, heart / Rate of inhibition, heart: n = 5
Experimental: (§1) It is widely known that Adreamycin, which is an oncostatic, inhibits the synthesis of DNA by combining therewith, and the metabolism of lipids in the heart to cause deposition of lipid peroxides therein, leading to miocardosis.
(§2) (1) The tests were conducted with groups of five COF male mice, five week old, weighing 20 to 25 g each. 15 mg/kg of Adreamycin (product of Kyowa Hakko Kogyo, Japan) were intraperitoneally injected into each mouse (0.15 ml of the medicine per 10 g of mouse weight).
(§3) The administration of each of the medicines to be tested as shown in Table 1 below was started one day prior to the administration of Adreamycin, and continued intraperitoneally for five days at a rate of 0.10 ml per 10 g of mouse weight. All the medicines tested were suspended or emulsified (only vitamin E) in a 0.9% physiological solution of sodium chloride, or a 0.9% physiological solution of sodium chloride containing 1% of Tween 80 immediately before they were applied. All the medicines tested were administered at noon every day, and Adreamycin was given three hours after the administration of the medicines tested. The saponin component of this invention was given in the amount of 1,000 mg/kg, 500 mg/kg, 125 mg/kg, 50 mg/kg, 25 mg/kg and 12.5 mg/kg, vitamin E in the amount of 1,000 mg/kg and 250 mg/kg, and vitamin B2 in the amount of 1,000 mg/kg, while a 0.9% physiological solution of sodium chloride was given to the mice of the control group.
(§4) (2) On the sixth day, each mouse was killed by dislocation of the cervical vertebrae, and its heart and liver were picked out immediately. After their wet weights were measured, a 2% homogenate was prepared with a 0.9% physiological solution of sodium chloride by a Potter homogenizer made of Teflon while it was being cooled with ice.
(§5) 0.5 ml of a 3% aqueous solution of sodium lauryl sulfate was added into 0.2 ml of the aforementioned 2% homogenate, and they were mixed together by shaking for 30 seconds. Then, 1.5 ml of an acetic acid buffer solution having a pH value of 3.6, and 1.5 ml of a 0.8% solution of thiobarbituric acid were added thereinto, followed by addition of distilled water to make a total of 4.0 ml. After the resulting solution was shaked vigorously for 30 seconds, it was heated at 95° C. for an hour in an oil bath, and cooled with flowing water for five minutes. Then, 1.0 ml of 0.2N hydrochloric acid and 5.0 ml of a mixed solution of n-butanol and pyridine (15:1) were added into the solution, and after it was shaked violently, it was subjected to centrifugal separation at 3,000 rpm for 15 minutes, whereby the top n-butanol layer was separated, and its fluorescence spectrum was measured by a spectrophotofluorometer (Ex 515 nm and Em 553 nm). […] The quantity of lipid peroxides was obtained by applying the working curve to the values as actually measured.
(§6) The rate of inhibition of the formation of lipid peroxides was obtained in accordance with the following equation to compare the effects of the various medicines tested, and the quantities thereof employed, as shown in Table 1: [formula] wherein A: the concentration of lipid peroxides in the group of mice to which no Adreamycin had been given;
(§7) D: the concentration of lipid peroxides in the groups of mice to which both Adreamycin and the medicines to be tested had been administered.
(§8) Note: The rate of inhibition by each dosage was calculated by comparison with the values shown for the respective test numbers in the control group (i.e., applying the values of C shown for the control group).

[5] = system: lipid peroxides in the liver; test: Inhibition of formation of lipid peroxides in the liver of Adreamycin-treated mice; type: in vivo, mice (COF male); conditions: n = 5
Experimental: as §1, §2, §3, §4, §5, §6, §7, §8

[6] = prior art statement; cited from earlier work; remark: listed apart in the source
[7] = system: formation of lipid peroxides; conditions: prior art statement, cited from earlier work

With `C[C@@H]1O[C@@H](O[C@H]2[C@H](O[C@H]3[C@H](O[C@H]4CC[C@@]5(C)[C@@H](CC[C@]6(C)[C@@H]5CC=C5[C@@H]7CC(C)(C)C[C@@H](O)[C@]7(C)CC[C@]56C)[C@@]4(C)CO)O[C@H](C(=O)O)[C@@H](O)[C@@H]3O)O[C@H](CO)[C@H](O)[C@@H]2O)[C@H](O)[C@H](O)[C@H]1O` [Soyasaponin I, 3-O-[α-L-rhamnopyranosyl(1→2)-β-D-galactopyranosyl(1→2)-β-D-glucuronopyranosyl]-soyasapogenol B] the “Quantity of lipid peroxide” value ([1]; 0.1 mg/ml) was 45.6 nmol/mL, the “Rate of inhibition of increase in lipid peroxide” value (shortened to “Rate of inhibition of increase”) ([1]; 0.1 mg/ml) was 30.3% and the “Quantity of lipid peroxide” value ([1]; 1 mg/ml) was 10.6 nmol/mL. For the same compound, the “Rate of inhibition of increase” value ([1]; 1 mg/ml) was 97.7%.

With `CC1(C)C[C@H]2C3=CC[C@@H]4[C@@]5(C)CC[C@H](O[C@@H]6O[C@H](C(=O)O)[C@@H](O)[C@H](O)[C@H]6O[C@@H]6O[C@H](CO)[C@H](O)[C@H](O)[C@H]6O[C@@H]6O[C@H](CO)[C@@H](O)[C@H](O)[C@H]6O)[C@](C)(CO)[C@@H]5CC[C@@]4(C)[C@]3(C)CC[C@@]2(C)[C@H](O[C@@H]2OC[C@H](O)[C@H](O[C@@H]3O[C@H](CO)[C@@H](O)[C@H](O)[C@H]3O)[C@H]2O)[C@@H]1O` [Soyasaponin A1, 3-O-[β-D-glucopyranosyl(1→2)-β-D-galactopyranosyl-(1→2)-β-D-glucuronopyranosyl]-22-O-[β-D-glucopyranosyl(1→3)-α-L-arabinopyranosyl]-soyasapogenol A] the “Quantity of lipid peroxide” value ([1]; 0.1 mg/ml) was 22.5 nmol/mL, the “Rate of inhibition of increase” value ([1]; 0.1 mg/ml) was 74.8% and the “Quantity of lipid peroxide” value ([1]; 1 mg/ml) was 13.8 nmol/mL. For the same compound, the “Rate of inhibition of increase” value ([1]; 1 mg/ml) was 91.5%, the “pH value of aqueous solution” value ([2]; 10 mg in 1 ml of water) was 6 and the Solubility (Solubility) was “easily soluble in methanol, soluble in water, pyridine, dimethyl sulfoxide and ethanol, and insoluble in acetone, chloroform and ether”.

For `CC1(C)C[C@@H](O)[C@]2(C)CC[C@]3(C)C(=CC[C@@H]4[C@@]5(C)CC[C@H](O[C@@H]6O[C@H](C(=O)O)[C@@H](O)[C@H](O)[C@H]6O[C@@H]6O[C@H](CO)[C@H](O)[C@H](O)[C@H]6O)[C@](C)(CO)[C@@H]5CC[C@]43C)[C@@H]2C1` [Soyasaponin III, 3-O-[β-D-galactopyranosyl(1→2)-β-D-glucuronopyranosyl]-soyasapogenol B], the “Quantity of lipid peroxide” value ([1]; 0.1 mg/ml) was 45.6 nmol/mL, the “Rate of inhibition of increase” value ([1]; 0.1 mg/ml) was 30.3% and the “Quantity of lipid peroxide” value ([1]; 1 mg/ml) was 8.8 nmol/mL. The “Rate of inhibition of increase” value ([1]; 1 mg/ml) was 101.2%.

With `C[C@@H]1O[C@@H](O[C@H]2[C@H](O[C@H]3[C@H](O[C@H]4CC[C@@]5(C)[C@@H](CC[C@]6(C)[C@@H]5CC=C5[C@@H]7CC(C)(C)C[C@@H](O)[C@]7(C)CC[C@]56C)[C@@]4(C)CO)O[C@H](C(=O)O)[C@@H](O)[C@@H]3O)OC[C@H](O)[C@@H]2O)[C@H](O)[C@H](O)[C@H]1O` [Soyasaponin II, 3-O-[α-L-rhamnopyranosyl(1→2)-α-L-arabinopyranosyl(1→2)-β-D-glucuronopyranosyl]-soyasapogenol B] the “Quantity of lipid peroxide” value ([1]; 0.1 mg/ml) was 46.3 nmol/mL, the “Rate of inhibition of increase” value ([1]; 0.1 mg/ml) was 28.9% and the “Quantity of lipid peroxide” value ([1]; 1 mg/ml) was 80.6 nmol/mL. For the same compound, the “Rate of inhibition of increase” value ([1]; 1 mg/ml) was -37.2%.

In the case of `Cc1c(C)c2c(c(C)c1O)CCC(C)(CCCC(C)CCCC(C)CCCC(C)C)O2` (stereo not drawn) [Vitamin E, α-tocopherol], the “Storage in the body and side effects” value [3] is listed as “stored in the body for a long period of time, and produces side effects”, the “Lipid peroxide, heart” value ([4]; 250 mg/kg i.p., test No. II) is listed as 86.34 ± 12.61 nmol/g and the “Rate of inhibition, heart” value ([4]; 250 mg/kg i.p., test No. II) is listed as 101.98. The “Lipid peroxide, heart” value ([4]; 1000 mg/kg i.p., test No. I) was 106.87 ± 36.40 nmol/g, the “Rate of inhibition, heart” value ([4]; 1000 mg/kg i.p., test No. I) was 82.61 and the “Lipid peroxide, liver” value ([5]; 250 mg/kg i.p., test No. II) was 76.90 ± 8.15 nmol/g. The “Rate of inhibition, liver” value ([5]; 250 mg/kg i.p., test No. II) was 94.79, the “Lipid peroxide, liver” value ([5]; 1000 mg/kg i.p., test No. I) was 89.27 ± 26.33 nmol/g and the “Rate of inhibition, liver” value ([5]; 1000 mg/kg i.p., test No. I) was 75.95. For the same compound, the Solubility [6] was “insoluble in water and soluble in oil” and the “Effectiveness for inhibiting the formation of lipid peroxides” value [7] was “effective agent for inhibiting the formation of lipid peroxides”.

With `CC1(C)C[C@H]2C3=CC[C@@H]4[C@@]5(C)CC[C@H](O[C@@H]6O[C@H](C(=O)O)[C@@H](O)[C@H](O)[C@H]6O[C@@H]6O[C@H](CO)[C@H](O)[C@H](O)[C@H]6O)[C@](C)(CO)[C@@H]5CC[C@@]4(C)[C@]3(C)CC[C@@]2(C)[C@H](O[C@@H]2OC[C@H](O)[C@H](O[C@@H]3O[C@H](CO)[C@@H](O)[C@H](O)[C@H]3O)[C@H]2O)[C@@H]1O` [Soyasaponin A2, 3-O-[β-D-galactopyranosyl-(1→2)-β-D-glucuronopyranosyl]-22-O-[β-D-glucopyranosyl (1→3)-α-L-arabinopyranosyl]-soyasapogenol A] the “Quantity of lipid peroxide” value ([1]; 0.1 mg/ml) was 60.0 nmol/mL, the “Rate of inhibition of increase” value ([1]; 0.1 mg/ml) was 2.5% and the “Quantity of lipid peroxide” value ([1]; 1 mg/ml) was 38.8 nmol/mL. The “Rate of inhibition of increase” value ([1]; 1 mg/ml) was 43.4%, the “pH value of aqueous solution” value ([2]; 5 mg in 1 ml of water) was 6 and the Solubility (Solubility) was “easily soluble in methanol, soluble in water, pyridine, dimethyl sulfoxide and ethanol, and insoluble in acetone, chloroform and ether”.

For `COc1cccc2c1C(=O)c1c(O)c3c(c(O)c1C2=O)C[C@@](O)(C(=O)CO)C[C@@H]3O[C@H]1C[C@H](N)[C@H](O)[C@H](C)O1` [Adreamycin], the “Effect of Adreamycin on lipid peroxides” value ([4]; 15 mg/kg i.p., heart and liver, mice) was “increases the lipid peroxides in the heart and liver”.

For `Cc1cc2nc3c(=O)[nH]c(=O)nc-3n(C[C@H](O)[C@H](O)[C@H](O)CO)c2cc1C` [Vitamin B2, riboflavin], the “Lipid peroxide, heart” value ([4]; 1000 mg/kg i.p., test No. I) was 153.61 ± 11.12 nmol/g, the “Rate of inhibition, heart” value ([4]; 1000 mg/kg i.p., test No. I) was 40.81 and the “Lipid peroxide, liver” value ([5]; 1000 mg/kg i.p., test No. I) was 124.84 ± 10.26 nmol/g. For the same compound, the “Rate of inhibition, liver” value ([5]; 1000 mg/kg i.p., test No. I) was 21.28 and the “Power of inhibiting the formation of lipid peroxides” value ([7]; compared with vitamin E) was “extremely lower power of inhibiting the formation of lipid peroxides than vitamin E”.
